In patent US20240325370A1, “THERAPEUTIC REGIMENS OF A DEGRADER OF BRD9” (FOGHORN THERAPEUTICS INC., priority 2021, published 2024):
Entries after “also recorded” stand apart in the source; their conditions may differ.

Experiments:
BRD9 [1] = biological target: T1, BRD9 (Homo sapiens, UniProt Q9H8M2); assay: BRD9 degradation in synovial sarcoma tumor in vivo (western blot); parameters: from tissue; host or cells: SYO-1 xenograft tumours in BALB/c nude or NOD SCID mice; species or system mice; conditions: 1 mg/kg i.p. for 4 weeks; up to 168 hours after dose
T1 sequence (Q9H8M2 1-597): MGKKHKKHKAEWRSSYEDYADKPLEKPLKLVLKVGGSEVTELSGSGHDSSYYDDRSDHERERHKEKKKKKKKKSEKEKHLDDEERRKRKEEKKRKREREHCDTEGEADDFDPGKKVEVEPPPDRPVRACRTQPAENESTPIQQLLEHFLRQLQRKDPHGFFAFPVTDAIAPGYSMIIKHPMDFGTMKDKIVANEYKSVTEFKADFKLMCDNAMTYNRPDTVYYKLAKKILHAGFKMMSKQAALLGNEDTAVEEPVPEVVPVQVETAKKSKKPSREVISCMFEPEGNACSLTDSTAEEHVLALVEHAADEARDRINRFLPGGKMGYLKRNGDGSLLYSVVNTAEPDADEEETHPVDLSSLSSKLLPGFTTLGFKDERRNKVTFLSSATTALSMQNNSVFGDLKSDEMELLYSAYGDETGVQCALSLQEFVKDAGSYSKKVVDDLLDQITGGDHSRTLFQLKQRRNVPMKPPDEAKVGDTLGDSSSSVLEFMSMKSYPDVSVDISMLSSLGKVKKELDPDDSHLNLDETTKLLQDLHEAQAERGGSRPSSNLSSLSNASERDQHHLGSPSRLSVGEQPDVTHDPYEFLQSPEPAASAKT
Method: Method: Mice were treated with D1, 1 mg/kg, i.p. for 4 weeks. Mice were then euthanized, and tumors were collected at 8 hours, 72 hours, and 168 hours post last dose. Tumors were lysed with 1×RIPA lysis buffer (Boston BioProducts, BP-115D) with protease and phosphatase protein inhibitor (Roche Applied Science #04906837001 & 05892791001). Equal amounts of lysate (30 ug) were loaded in 4-12% Bis-Tris Midi Protein Gels in 1×MOPS buffer; samples ran at 120 V for 120 minutes. Protein was transferred to membrane with TransBlot at 250 mA for 150 minutes, and then membranes were blocked with Odyssey blocking buffer for 1 hour at room temperature. Membranes were hybridized overnight in cold room with primary antibodies. Images acquired using Li-COR imaging system (Li-COR Biotechnology, Lincoln, Nebraska).

BRD9 [2] = biological target: T1, BRD9; assay: Tumor BRD9 modulation after each regimen, SYO-1 xenograft (western blot); type: in vivo, mice; parameters: from tissue; host or cells: SYO-1 xenograft tumours in BALB/c nude or NOD SCID mice
Excerpt: The racemate, compound D1, which consists of ˜50% compound S-D1, was utilized in an SYO-1 (a synovial sarcoma xenograft) model to explore if similar efficacy is achievable with an intermittent dosing schedule. Due to technical feasibility and animal-welfare considerations, intraperitoneal (IP) administration was chosen over the IV route. […] Groups of female SYO-1 tumor-bearing NOD SCID mice (n=8/group) were intraperitoneally administered with vehicle or compound D1 for 21 days. Compound D1 was formulated as a suspension in 10% DMSO/40% PEG400/50% deionized water, volume/volume (v/v). […] To determine the level of modulation of BRD9 after each regimen, mice (n=4 mice/time-point) were euthanized and tumor samples were collected at different timepoints post-last dose (Day 21). […] BRD9 levels were assessed at 24, 72 and 168 hours (expected time points of trough plasma concentrations) for QD, BIW, and QW regimens respectively, as indicated in Table 8. Samples were analyzed using Western blot method.

[3] = Plasma exposure of compound S-D1 after the last dose; type: in vivo, mice
Method: The objective of this study was to provide proof-of-concept of anti-tumor efficacy with intermittent dosing schedules for compound S-D1 by IV administration. Groups of female SYO-1 tumor-bearing NOD SCID mice (n=10/group) were dosed IV with vehicle, compound D1 or compound S-D1 for 24 days according to treatments and dosing schedules shown in Table 10. Compound D1 was formulated in 10% DMSO/40% PEG400/50% water and compound S-D1 was formulated in 20% SBECD in 5 mM citrate buffer, final pH was adjusted to 5 with 1 N NaOH. For the compound S-D1 treatment groups, plasma samples were collected at designated time points following the last dosing. Plasma samples were acidified to stabilize the compound right after collection and analyzed for compound S-D1 concentrations.

| Structure (SMILES) | degradation of BRD9 in tumor (BRD9 [1]) | BRD9 PD effect in tumor at Cmin (BRD9 [2]; 0.35 mg/kg BIW or 0.7 mg/kg QW treatment) | BRD9 depletion in tumor at Cmin (BRD9 [2]; 3.5 mg/kg QW and 0.5 mg/kg QD treated groups) | exposure in plasma versus dose ([3]; from 0.05 to […] IV) | exposure in plasma versus dose ([3]; from 0.25 to 2 mg/kg IV) |
| --- | --- | --- | --- | --- | --- |
| COc1cc(-c2cn(C)c(=O)c3cnc(N4CCC4)cc23)cc(OC)c1CN1CCC(CN2CCC3(CC2)CN(c2ccc4c(c2)C(=O)N(C2CCC(=O)NC2=O)C4)C3)CC1 (racemic) [Compound D1, 3-[6-(7-[[1-([4-[6-(azetidin-1-yl)-2-methyl-1-oxo-2,7-naphthyridin-4-yl]-2,6-dimethoxyphenyl]methyl)piperidin-4-yl]methyl]-2,7-diazaspiro[3.5]nonan-2-yl)-1-oxo-3H-isoindol-2-yl]piperidine-2,6-dione] | complete degradation of BRD9 target; also recorded: BRD9 inhibition | intermediate PD effect | Nearly complete BRD9 depletion | – | – |
| COc1cc(-c2cn(C)c(=O)c3cnc(N4CCC4)cc23)cc(OC)c1CN1CCC(CN2CCC3(CC2)CN(c2ccc4c(c2)C(=O)N([C@H]2CCC(=O)NC2=O)C4)C3)CC1 (single isomer, unassigned) [Compound S-D1] | – | – | – | increased more than proportionally to dose | slightly less than proportionally to dose |
